Measurements: US7425631B2 (Amgen Inc., priority 2003, dated 2008)

Each molecule was assayed against T1, human B1 receptor (Homo sapiens, UniProt P46663) (assay: In vitro assay of human B1 receptor function using calcium flux (aequorin luminescence)). Conditions: CHO D-/hB1/Aequorin cells, agonist 20 nM des-Arg10-Kallidin (EC80); read-out: binding IC50's to hB1 receptor function.
T1 construct: expressed in transfected cells
T1 sequence (P46663 1-353): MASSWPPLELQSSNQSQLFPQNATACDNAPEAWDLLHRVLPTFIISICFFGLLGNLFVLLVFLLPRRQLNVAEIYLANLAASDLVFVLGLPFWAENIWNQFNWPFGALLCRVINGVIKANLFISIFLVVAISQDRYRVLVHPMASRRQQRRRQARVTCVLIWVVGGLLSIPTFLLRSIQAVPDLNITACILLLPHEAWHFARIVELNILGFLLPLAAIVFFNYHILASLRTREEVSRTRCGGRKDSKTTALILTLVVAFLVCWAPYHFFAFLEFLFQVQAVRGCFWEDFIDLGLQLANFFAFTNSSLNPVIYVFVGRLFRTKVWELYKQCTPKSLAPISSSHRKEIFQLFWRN
Format: cell-based
Method: Activation of the Gq linked B1 receptor results in an increase in intracellular calcium. […] Aequorin is a 21-kDa photoprotein that forms a bioluminescent complex when linked to the chromophore cofactor coelenterazine.
Following coelenterazine incubation, an automated flash-luminometer platform was used to dispense the B1 antagonist compounds (dissolved in DMSO and diluted with buffer to the desired concentration (final DMSO concentration <1% DMSO)) to the cell plate, a CCD camera situated underneath the cell plate took 12 images of the cell plate at 5 second intervals to determine if there was any agonist activity with the compounds. The hB1 agonist, des-Arg10-Kallidin, was added to the cell plate and another 12 images were recorded to determine the IC50 of the antagonist(s).

SMILES	IC50
O=C(C[C@@H](NS(=O)(=O)c1ccc(Cl)c(Cl)c1)c1ccccc1)N[C@@H]1CCOc2cc(CN3CCOCC3)ccc21 [Example 169, (3R)-3-(((3,4-Dichlorophenyl)sulfonyl)amino)-N-((4R)-7-(4-morpholinylmethyl)-3,4-dihydro-2H-chromen-4-yl)-3-phenylpropanamide]	< 10 nM
COc1ccc([C@@H](CC(=O)N[C@@H]2CCCc3cc(CN4CCCCC4)ccc32)NS(=O)(=O)c2cc3cc(Cl)ccc3s2)cn1 [aw, (3R)-3-(((5-chloro-1-benzothien-2-yl)sulfonyl)amino)-3-(6-(methyloxy)-3-pyridinyl)-N-((1R)-6-(1-piperidinylmethyl)-1,2,3,4-tetrahydro-1-naphthalenyl)propanamide]	< 10 nM
C=C(CN1CCCC1)c1ccc2c(c1)CCC[C@H]2NC(=O)C[C@@H](NS(=O)(=O)c1cccc(C(F)(F)F)c1)c1ccccc1 [Example 218q, (3R)-3-phenyl-N-((1R)-6-(1-(1-pyrrolidinylmethyl)ethenyl)-1,2,3,4-tetrahydro-1-naphthalenyl)-3-(((3-(trifluoromethyl)phenyl)sulfonyl)amino)propanamide]	< 10 nM
CC(C)CNCc1ccc2c(c1)CCC[C@H]2NC(=O)C[C@@H](NS(=O)(=O)c1ccc(Cl)c(Cl)c1)c1ccccc1 [bg, (3R)-3-(((3,4-dichlorophenyl)sulfonyl)amino)-N-((1R)-6-(((2-methylpropyl)amino)methyl)-1,2,3,4-tetrahydro-1-naphthalenyl)-3-phenylpropanamide]	< 10 nM
CC(C)(C)c1ccc(S(=O)(=O)N[C@H](CC(=O)N[C@@H]2CCCc3cc(CNC4CCC4)ccc32)c2ccc(F)cc2)cc1 [de, 3-(4-tert-Butyl-benzenesulfonylamino)-N-(6-cyclobutylaminomethyl-1,2,3,4-tetrahydro-naphthalen-1-yl)-3-(4-fluoro-phenyl)-propionamide]	< 10 nM
O=C(CC(NS(=O)(=O)c1cccc(C(F)(F)F)c1)c1ccc(Cl)cc1)N[C@@H]1CCCc2cc(CN3CCCCC3)ccc21 (stereo partly drawn) [ex, 3-(4-Chloro-phenyl)-N-(6-piperidin-1-ylmethyl-1,2,3,4-tetrahydro-naphthalen-1-yl)-3-(3-trifluoromethyl-benzenesulfonylamino)-propionamide]	< 10 nM
CC(C)(C)NCc1ccc2c(c1)CCC[C@H]2NC(=O)C[C@@H](NS(=O)(=O)c1cccc(C(F)(F)F)c1)c1cccc(C#N)c1 [cy, N-[6-(tert-Butylamino-methyl)-1,2,3,4-tetrahydro-naphthalen-1-yl]-3-(3-cyano-phenyl)-3-(3-trifluoromethyl-benzenesulfonylamino)-propionamide]	< 10 nM
CC(C)(C)c1ccc(S(=O)(=O)N[C@H](CC(=O)N[C@@H]2CCCc3cc(CN4CCCCC4)ccc32)c2ccc(F)cc2)cc1 [dh, 3-(4-tert-Butyl-benzenesulfonylamino)-3-(4-fluoro-phenyl)-N-(6-piperidin-1-ylmethyl-1,2,3,4-tetrahydro-naphthalen-1-yl)-propionamide]	< 10 nM
O=C(C[C@@H](NS(=O)(=O)c1cccc(C(F)(F)F)c1)c1ccccc1)N[C@@H]1CCOc2cc(CN3CCCCC3)ccc21 [Example 166, (3R)-3-Phenyl-N-((4R)-7-(1-piperidinylmethyl)-3,4-dihydro-2H-chromen-4-yl)-3-(((3-(trifluoromethyl)phenyl)sulfonyl)amino)propanamide]	< 10 nM
O=C(CC(NS(=O)(=O)c1cccc(C(F)(F)F)c1)c1cc(Cl)cc(Cl)c1)N[C@@H]1CCCc2cc(CN3CCCCC3)ccc21 (stereo partly drawn) [fb, 3-(3,5-Dichloro-phenyl)-N-(6-piperidin-1-ylmethyl-1,2,3,4-tetrahydro-naphthalen-1-yl)-3-(3-trifluoromethyl-benzenesulfonylamino)-propionamide]	< 10 nM
COCCNCc1ccc2c(c1)OCC[C@H]2NC(=O)C[C@@H](NS(=O)(=O)c1ccc(Cl)c(Cl)c1)c1ccc(F)cc1 [ce, 3-(3,4-Dichloro-benzenesulfonylamino)-3-(4-fluoro-phenyl)-N-{7-[(2-methoxy-ethylamino)-methyl]-chroman-4-yl}-propionamide]	< 10 nM
O=C(C[C@@H](NS(=O)(=O)c1cccc(C(F)(F)F)c1)c1cccc(F)c1)N[C@@H]1CCCc2cc(CN3CCCCC3)ccc21 [dq, 3-(3-Fluoro-phenyl)-N-(6-piperidin-1-ylmethyl-1,2,3,4-tetrahydro-naphthalen-1-yl)-3-(3-trifluoromethyl-benzenesulfonylamino)-propionamide]	< 10 nM
O=C(C[C@@H](NS(=O)(=O)c1cccc(C(F)(F)F)c1)c1ccc(F)cc1)N[C@@H]1CCCc2cc(CNC3CCCC3)ccc21 [n, (3R)-N-((1R)-6-((cyclopentylamino)methyl)-1,2,3,4-tetrahydro-1-naphthalenyl)-3-(4-fluorophenyl)-3-(((3-(trifluoromethyl)phenyl)sulfonyl)-amino)propanamide]	< 10 nM
Cc1c(S(=O)(=O)N[C@H](CC(=O)NC2CCCc3cc(CNC(C)(C)C)ccc32)c2ccccc2)sc2ccc(Cl)cc12 (stereo partly drawn) [ad, (3R)-3-(((5-chloro-3-methyl-1-benzothien-2-yl)sulfonyl)amino)-N-(6-(((1,1-dimethylethyl)amino)methyl)-1,2,3,4-tetrahydro-1-naphthalenyl)-3-phenylpropanamide]	< 10 nM
O=C(C[C@@H](NS(=O)(=O)c1cccc(C(F)(F)F)c1)c1ccc(F)cc1)N[C@@H]1CCCc2cc(CN3CCCC3)ccc21 [o, (3R)-3-(4-fluorophenyl)-N-((1R)-6-(1-pyrrolidinylmethyl)-1,2,3,4-tetrahydro-1-naphthalenyl)-3-(((3-(trifluoromethyl)phenyl)sulfonyl)-amino)propanamide]	< 10 nM
O=C(C[C@@H](NS(=O)(=O)c1ccc2ccccc2c1)c1ccccc1)N[C@H]1CCc2cc(CN3CCCCC3)ccc21 [Example 176, (3R)-3-((2-Naphthalenylsulfonyl)amino)-3-phenyl-N-((1S)-5-(1-piperidinylmethyl)-2,3-dihydro-1H-inden-1-yl)propanamide]	< 10 nM
CC(C)(C)NCc1ccc2c(c1)CCC[C@H]2NC(=O)C[C@@H](NS(=O)(=O)c1ccc(Cl)c(Cl)c1)c1ccccc1 [bm, (3R)-3-(((3,4-dichlorophenyl)sulfonyl)amino)-N-((1R)-6-(((1,1-dimethylethyl)amino)methyl)-1,2,3,4-tetrahydro-1-naphthalenyl)-3-phenylpropanamide]	< 10 nM
O=C(C[C@@H](NS(=O)(=O)c1cccc(C(F)(F)F)c1)c1ccccc1)N[C@@H]1CCCc2cc(CN3CC=CCC3)ccc21 [am, (3R)-N-((1R)-6-(3,6-dihydro-1(2H)-pyridinylmethyl)-1,2,3,4-tetrahydro-1-naphthalenyl)-3-phenyl-3-(((3-(trifluoromethyl)phenyl)sulfonyl)amino)propanamide]	< 10 nM
CC(C)CNCc1ccc2c(c1)OCC[C@H]2NC(=O)C[C@@H](NS(=O)(=O)c1cccc(C(F)(F)F)c1)c1ccc(F)cc1 [cl, 3-(4-Fluoro-phenyl)-N-[7-(isobutylamino-methyl)-chroman-4-yl]-3-(3-trifluoromethyl-benzenesulfonylamino)-propionamide]	< 10 nM
O=C(C[C@@H](NS(=O)(=O)c1ccc(Cl)c(Cl)c1)c1cccc(Cl)c1)N[C@@H]1CCCc2cc(CN3CCCCC3)ccc21 [ed, 3-(3-Chloro-phenyl)-3-(3,4-dichloro-benzenesulfonylamino)-N-(6-piperidin-1-ylmethyl-1,2,3,4-tetrahydro-naphthalen-1-yl)-propionamide]	< 10 nM
CC(C)(C)NCc1ccc2c(c1)CCC[C@H]2NC(=O)C[C@@H](NS(=O)(=O)c1ccc(C(C)(C)C)cc1)c1ccc(F)cc1 [do, N-[6-(tert-Butylamino-methyl)-1,2,3,4-tetrahydro-naphthalen-1-yl]-3-(4-tert-butyl-benzenesulfonylamino)-3-(4-fluoro-phenyl)-propionamide]	< 10 nM
C=C(CN1CC[C@H](O)C1)c1ccc2c(c1)CCC[C@H]2NC(=O)C[C@@H](NS(=O)(=O)c1cccc(C(F)(F)F)c1)c1ccccc1 [Example 218j, (3R)-N-((1R)-6-(1-(((3S)-3-hydroxy-1-pyrrolidinyl)methyl)ethenyl)-1,2,3,4-tetrahydro-1-naphthalenyl)-3-phenyl-3-(((3-(trifluoromethyl)phenyl)sulfonyl)amino)propanamide]	< 10 nM
O=C(CC(NS(=O)(=O)c1cccc(C(F)(F)F)c1)c1ccccc1F)N[C@@H]1CCCc2cc(CN3CCCCC3)ccc21 (stereo partly drawn) [fg, 3-(2-Fluoro-phenyl)-N-(6-piperidin-1-ylmethyl-1,2,3,4-tetrahydro-naphthalen-1-yl)-3-(3-trifluoromethyl-benzenesulfonylamino)-propionamide]	< 10 nM
CC(C)CNC(C)c1ccc2c(c1)CCC[C@H]2NC(=O)C[C@@H](NS(=O)(=O)c1cccc(C(F)(F)F)c1)c1ccccc1 (stereo partly drawn) [Example 220a, (3R)-3-((hydroxy(oxido)(3-(trifluoromethyl)phenyl)-lambda-4—sulfanyl)amino)-N-((1R)-6-((1R)-1-((2-methylpropyl)amino)ethyl)-1,2,3,4-tetrahydro-1-naphthalenyl)-3-phenylpropanamide]	< 10 nM
